Test systems include Escherichia coli UB1005; Candida krusei ATCC 6258; Candida albicans SC5314; Klebsiella pneumoniae; Escherichia coli ESBL; Yersinia pestis KIM pYV.
What all share (assay): ≥ marks a high value that may be exact or a test limit, other limits are often not marked, values filed in µg/mL are converted to µM
The subject of assay [1] is Salmonella typhimurium ATCC 7731.
The subject of assay [2] is Pseudomonas aeruginosa ATCC 27853.
Assay [3] relates to Pseudomonas aeruginosa PAO1.
The test system of assay [4] is Enterococcus faecalis ATCC 29212.
Assay [5] deals with Bacillus subtilis CMCC 63501.
The subject of assay [6] is Staphylococcus epidermidis ATCC 12228.
Assay [7] concerns Salmonella enterica subsp. enterica serovar Typhimurium ATCC 14028.
For assay [8], the system named is Staphylococcus aureus ATCC 43300.
Assay [9] has as its system Staphylococcus aureus ATCC 29213.
Assay [10] relates to Escherichia coli ATCC 25922.
The test system of assay [11] is Salmonella enterica subsp. enterica serovar Pullorum C79-13.
Assay [12] has as its system Candida parapsilosis ATCC 22019.
In assay [13] the test system is Candida albicans ATCC 90028.
The test system of assay [14] is Bacillus subtilis ATCC 19659.
Assay [15] has as its system Staphylococcus aureus ATCC 25923.
Assay [16] deals with Brucella abortus 9.49 (per-).
Assay [17] relates to Bordetella bronchiseptica CUN 11844-99.
Assay [18] has as its system Escherichia coli ATCC 23716.
Assay [19] concerns Pseudomonas aeruginosa CUN 4158-02.
In assay [20] the test system is Acinetobacter baumannii ATCC 19606.
Assay [21] relates to Candida tropicalis ATCC 13803.
Assay [22] concerns Escherichia coli ATCC 10536.
For assay [23], the system named is Staphylococcus aureus ATCC 9144.
Assay [24] concerns Pseudomonas aeruginosa ATCC BAA-427.
Assay [25] deals with Escherichia coli DH5alpha.
Assay [26] concerns Bacillus subtilis ATCC 6633.
The test system of assay [27] is Klebsiella pneumoniae ATCC 27736.
Assay [28] concerns Escherichia coli NBRC 14237.
Assay [29] deals with Micrococcus luteus NBRC 12708.
Assay [30] deals with Pseudomonas aeruginosa NBRC 12582.
Assay [31] deals with Staphylococcus aureus NBRC 12732.

Converted amounts (≈) assume the structure as drawn.

Turning to `CC[C@H](C)[C@H](NC(=O)[C@H](CCCN=C(N)N)NC(=O)[C@@H](N)Cc1ccccc1)C(=O)N[C@@H](CCCN=C(N)N)C(=O)N[C@H](C(=O)N[C@@H](CCCN=C(N)N)C(=O)N[C@H](C(N)=O)C(C)C)C(C)C` [FRIRVRV], the minimum inhibitory concentration (MIC) in assay [1] is at least 32 µM; in assay [2] it was 16 µM (≈ 15.1 µg/mL); in assay [3], 32 µM (≈ 30.2 µg/mL); in assay [4], 32 µM (≈ 30.2 µg/mL); against Escherichia coli UB1005, at least 32 µM; in [5] it was 16 µM (≈ 15.1 µg/mL). Besides, the figures for the MIC in [6] and in assay [7] were 32 µM (≈ 30.2 µg/mL) and 16 µM (≈ 15.1 µg/mL), respectively.

On to `CC(C)C[C@H](NC(=O)[C@H](CCCCN)NC(=O)[C@H](CCCCN)NC(=O)[C@H](C)NC(=O)[C@@H](NC(=O)[C@H](CCCCN)NC(=O)[C@H](CO)NC(=O)[C@H](CC(C)C)NC(=O)[C@H](Cc1c[nH]c2ccccc12)NC(=O)[C@H](CC(C)C)NC(=O)[C@H](CCCCN)NC(=O)[C@H](CCCCN)NC(=O)[C@H](C)NC(=O)[C@@H](NC(=O)[C@H](CCCCN)NC(=O)[C@H](CO)NC(=O)[C@H](CC(C)C)NC(=O)[C@@H](N)Cc1c[nH]c2ccccc12)[C@@H](C)O)[C@@H](C)O)C(N)=O` [WLSKTAKKLWLSKTAKKL], for which the MIC in [8] was 128 µM (≈ 273 µg/mL); in assay [1] it was at least 32 µM; in assay [9], 128 µM (≈ 273 µg/mL); in assay [2] it was 16 µM (≈ 34.1 µg/mL); in assay [10] it was 8 µM (≈ 17 µg/mL); with Escherichia coli UB1005, 8 µM (≈ 17 µg/mL). The MIC in [11] is 16 µM (≈ 34.1 µg/mL); in assay [5], at least 64 µM; in [6] it was 128 µM (≈ 273 µg/mL).

Turning to `CC[C@H](C)[C@H](NC(=O)[C@@H](NC(=O)CN)C(C)C)C(=O)N[C@@H](CCCCN)C(=O)N[C@@H](C)C(=O)N[C@@H](C)C(=O)N[C@@H](CCCCN)C(=O)N[C@@H](CCCCN)C(=O)N[C@H](C(=O)N[C@H](C(=O)N[C@@H](CC(N)=O)C(=O)N[C@H](C(=O)N[C@@H](CC(C)C)C(=O)N[C@@H](CCCCN)C(=O)N[C@@H](CC(N)=O)C(=O)N[C@@H](CC(C)C)C(=O)N[C@@H](Cc1ccccc1)C(N)=O)C(C)C)C(C)C)C(C)C` [GVIKAAKKVVNVLKNLF], the MIC in assay [12] is at least 34.8 µM; against Candida krusei ATCC 6258 it was at least 34.8 µM; in the assay with Candida albicans SC5314, at least 34.8 µM; in assay [13], at least 69.5 µM.

In the case of `CC[C@H](C)[C@H](NC(C)=O)C(=O)N[C@@H](Cc1ccccc1)C(=O)NCC(=O)N[C@@H](C)C(=O)N[C@H](C(=O)N[C@@H](Cc1c[nH]c2ccccc12)C(=O)N1CCC[C@H]1C(=O)N[C@@H](CC(C)C)C(=O)N[C@@H](C)C(=O)N[C@@H](CC(C)C)C(=O)NCC(=O)N[C@@H](C)C(=O)N[C@@H](CC(C)C)C(=O)N[C@@H](CCCCN)C(=O)N[C@@H](CC(N)=O)C(=O)N[C@@H](CC(C)C)C(=O)N[C@H](C(=O)N[C@@H](CCCCN)C(N)=O)[C@@H](C)CC)[C@@H](C)CC` [IFGAIWPLALGALKNLIK], the MIC in [12] is at least 125 µM; in the assay with Candida krusei ATCC 6258 it was at least 125 µM; in [2], above 128 µM; in assay [14], 4 µM (≈ 7.92 µg/mL); in [13], at least 32 µM; in assay [10] it was 128 µM (≈ 253 µg/mL). Moreover, the MIC in assay [15] worked out at 4 µM (≈ 7.92 µg/mL).

On to `CC(C)C[C@H](NC(=O)[C@H](CCCCN)NC(=O)CNC(=O)[C@H](CCCCN)NC(=O)[C@H](Cc1ccccc1)NC(=O)[C@H](CCCCN)NC(=O)[C@H](Cc1c[nH]c2ccccc12)NC(=O)[C@H](CCCN=C(N)N)NC(=O)[C@H](Cc1ccccc1)NC(=O)[C@H](CCCN=C(N)N)NC(=O)[C@H](CCCN=C(N)N)NC(=O)[C@H](Cc1ccc(O)cc1)NC(=O)[C@H](CO)NC(=O)[C@H](CCCCN)NC(=O)CN)C(=O)N[C@@H](Cc1ccccc1)C(=O)N[C@@H](CC(C)C)C(=O)N[C@@H](Cc1ccccc1)C(=O)NCC(N)=O` [GKSYRRFRWKFKGKLFLFG], for which the MIC with Klebsiella pneumoniae came to 6.61 µM (≈ 16 µg/mL); against Escherichia coli ESBL it was 4.67 µM (≈ 11.3 µg/mL).

In the case of `CC[C@H](C)[C@H](N)C(=O)N[C@@H](CO)C(=O)N[C@@H](CCCCN)C(=O)N[C@@H](CCCN=C(N)N)C(=O)N[C@H](C(=O)N[C@@H](CC(C)C)C(=O)N[C@H](C(=O)NCC(=O)N[C@@H](CCCCN)C(=O)N[C@@H](CCCCN)C(N)=O)[C@@H](C)O)[C@@H](C)CC` [ISKRILTGKK], the MIC in assay [8] is above 224 µM; in [16], at least 56 µM; in assay [17] it was at least 224 µM; in assay [18], at least 224 µM; in [10] it was above 224 µM; in the assay on Yersinia pestis KIM pYV, at least 224 µM. Further, the figures for the MIC in assay [19] and in assay [20] were at least 224 µM and above 224 µM, respectively.

In the case of `NCCCC[C@H](NC(=O)[C@@H](N)CS)C(=O)N[C@@H](Cc1ccc(O)cc1)C(=O)N[C@@H](CCCN=C(N)N)C(=O)N[C@@H](Cc1c[nH]c2ccccc12)C(=O)N[C@@H](CCCN=C(N)N)C(=O)O` [CKYRWR], the MIC in assay [12] is at least 220 µM; against Candida albicans SC5314, at least 439 µM; in assay [21], at least 220 µM.

Turning to `CC[C@H](C)[C@H](NC(=O)CN)C(=O)NCC(=O)N[C@@H](C)C(=O)N[C@H](C(=O)N[C@H](C(=O)N[C@@H](CCCCN)C(=O)N[C@H](C(=O)N[C@@H](CC(C)C)C(=O)N[C@H](C(=O)N[C@H](C(=O)NCC(=O)N[C@H](C(=O)N1CCC[C@H]1C(=O)N[C@@H](C)C(=O)N[C@H](C(=O)N[C@H](C(=O)N[C@@H](CO)C(=O)N[C@@H](Cc1c[nH]c2ccccc12)C(=O)N[C@H](C(=O)N[C@@H](CCCCN)C(=O)N[C@@H](CCCN=C(N)N)C(=O)N[C@@H](CCCCN)C(=O)N[C@@H](CCCN=C(N)N)C(=O)N[C@@H](CCC(N)=O)C(=O)N[C@@H](CCC(N)=O)C(N)=O)[C@@H](C)CC)[C@@H](C)CC)C(C)C)C(C)C)[C@@H](C)O)[C@@H](C)O)C(C)C)C(C)C)C(C)C` [GIGAVVKVLTTGVPAVISWIKRKRQQ], the MIC in assay [22] is 3.3 µM (≈ 9.25 µg/mL); in [23], 3 µM (≈ 8.41 µg/mL); in assay [24], 12 µM (≈ 33.7 µg/mL); in assay [25], 3.5 µM (≈ 9.82 µg/mL); in assay [26] it was 2.5 µM (≈ 7.01 µg/mL); in assay [27], 2.1 µM (≈ 5.89 µg/mL).

For the compound `CC[C@H](C)[C@H](NC(=O)CNC(=O)[C@H](C)NC(=O)[C@H](CC(C)C)NC(=O)[C@H](CC(C)C)NC(=O)CNC(=O)[C@@H]1CCCN1C(=O)[C@H](CC(C)C)NC(=O)[C@H](CC(C)C)NC(=O)[C@H](CC(N)=O)NC(=O)[C@H](CC(C)C)NC(=O)[C@H](CC(C)C)NC(=O)[C@@H](N)CCCCN)C(=O)N[C@@H](Cc1ccccc1)C(N)=O` [KLLNLLPGLLAGIF], the MIC is 12.5 µM (≈ 18.5 µg/mL) in [28], 25 µM (≈ 37 µg/mL) in assay [29], at least 50 µM in [30] and 12.5 µM (≈ 18.5 µg/mL) in [31].

For the origin of these results see DBAASP.
